Values quoted from earlier work in patent US8653026B2, “Treatment of type 2 diabetes with FTY720” (Diapin Therapeutics LLC, priority 2011, dated 2014).

How the values were obtained:
Settings in all cases: literature reference (25); cited from earlier work
S1P1 = S1P1 (Homo sapiens, UniProt P21453)
S1P3 = S1P3 (Homo sapiens, UniProt Q99500)
S1P4 = target: T1, S1P4 (Homo sapiens, UniProt O95977)
T1 sequence (O95977 1-384): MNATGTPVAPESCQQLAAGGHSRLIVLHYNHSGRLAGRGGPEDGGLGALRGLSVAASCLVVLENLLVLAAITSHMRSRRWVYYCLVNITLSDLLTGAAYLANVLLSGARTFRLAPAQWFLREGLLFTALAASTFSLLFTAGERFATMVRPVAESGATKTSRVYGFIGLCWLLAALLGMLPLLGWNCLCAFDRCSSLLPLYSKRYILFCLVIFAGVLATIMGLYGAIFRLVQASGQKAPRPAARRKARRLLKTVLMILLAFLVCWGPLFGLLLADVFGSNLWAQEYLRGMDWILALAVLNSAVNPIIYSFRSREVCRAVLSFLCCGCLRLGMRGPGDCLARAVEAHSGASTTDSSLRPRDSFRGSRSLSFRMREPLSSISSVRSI

S1P5 = S1P5 (Homo sapiens, UniProt Q9H228)
S1P2 = S1P2 (Homo sapiens, UniProt O95136)
Chain of S1P2 (O95136 whole entry, species assumed): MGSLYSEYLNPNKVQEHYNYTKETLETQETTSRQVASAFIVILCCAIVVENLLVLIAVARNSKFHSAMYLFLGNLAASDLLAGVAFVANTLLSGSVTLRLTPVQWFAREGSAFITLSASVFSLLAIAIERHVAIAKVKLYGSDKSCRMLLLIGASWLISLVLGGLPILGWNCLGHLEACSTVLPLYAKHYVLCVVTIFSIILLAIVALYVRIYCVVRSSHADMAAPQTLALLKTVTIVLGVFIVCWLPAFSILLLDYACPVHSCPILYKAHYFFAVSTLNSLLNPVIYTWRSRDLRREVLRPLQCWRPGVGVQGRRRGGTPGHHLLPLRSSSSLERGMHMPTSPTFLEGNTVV

Chain of S1P5 (Q9H228 whole entry, species assumed): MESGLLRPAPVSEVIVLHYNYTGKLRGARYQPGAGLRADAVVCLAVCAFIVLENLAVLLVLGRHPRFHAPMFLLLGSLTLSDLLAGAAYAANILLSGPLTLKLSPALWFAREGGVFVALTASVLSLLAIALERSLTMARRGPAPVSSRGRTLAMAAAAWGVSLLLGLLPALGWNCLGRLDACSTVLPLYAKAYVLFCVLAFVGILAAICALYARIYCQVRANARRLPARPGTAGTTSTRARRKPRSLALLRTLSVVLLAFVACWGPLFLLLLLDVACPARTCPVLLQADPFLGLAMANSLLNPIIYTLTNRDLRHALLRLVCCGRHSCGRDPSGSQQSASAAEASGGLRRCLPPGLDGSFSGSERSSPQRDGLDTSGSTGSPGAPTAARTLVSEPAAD
Chain of S1P1 (P21453 whole entry, species assumed): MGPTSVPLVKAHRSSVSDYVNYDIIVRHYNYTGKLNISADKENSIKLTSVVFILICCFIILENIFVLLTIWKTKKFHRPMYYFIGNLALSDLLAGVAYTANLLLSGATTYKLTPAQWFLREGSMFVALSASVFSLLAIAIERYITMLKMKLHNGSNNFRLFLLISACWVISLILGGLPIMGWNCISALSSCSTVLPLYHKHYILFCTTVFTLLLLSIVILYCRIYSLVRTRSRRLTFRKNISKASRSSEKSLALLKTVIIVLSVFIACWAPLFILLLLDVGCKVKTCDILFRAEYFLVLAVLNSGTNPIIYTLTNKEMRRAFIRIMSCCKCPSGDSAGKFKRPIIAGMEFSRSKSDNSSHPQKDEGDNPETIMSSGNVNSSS
Chain of S1P3 (Q99500 whole entry, species assumed): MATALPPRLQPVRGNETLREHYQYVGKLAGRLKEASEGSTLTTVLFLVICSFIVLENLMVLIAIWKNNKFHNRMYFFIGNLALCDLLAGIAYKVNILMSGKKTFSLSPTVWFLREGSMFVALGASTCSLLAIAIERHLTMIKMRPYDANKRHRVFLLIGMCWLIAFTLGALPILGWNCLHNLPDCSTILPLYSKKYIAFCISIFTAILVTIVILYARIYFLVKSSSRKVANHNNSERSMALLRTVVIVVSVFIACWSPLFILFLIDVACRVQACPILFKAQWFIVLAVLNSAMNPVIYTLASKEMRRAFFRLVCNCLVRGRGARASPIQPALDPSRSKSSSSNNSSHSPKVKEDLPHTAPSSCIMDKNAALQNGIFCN

## CCCCCCCCc1ccc(CCC(N)(CO)COP(=O)(O)O)cc1 (centres unmarked) [FTY720-P, 2-amino-2-(hydroxymethyl)-4-(4-octylphenyl)butyl dihydrogen phosphate]
S1P1
  binding to S1P1: binds
S1P3
  binding to S1P3: binds
S1P4
  binding to S1P4: binds
S1P5
  binding to S1P5: binds
S1P2
  binding to S1P2: but not S1P2
